Experiments:
[1] = system: tobacco cutworm (Spodoptera litura) larvae; test: Test against tobacco cutworm (Spodoptera litura) larvae, leaf dip; type: in vivo; conditions: active compound concentration of 100 ppm; third-instar larvae on sweet potato leaves; after 7 days
Procedure: (§1) Unless not mentioned otherwise, the test solutions were prepared as follows:
(§2) Containing as solvent: Dimethylformamide, 3 parts by weight; and as emulsifier: Polyoxyethylene alkyl phenyl ether, 1 part by weight
(§3) To prepare the test solution, 1 part by weight of an active compound is mixed with the above-mentioned amount of solvent containing the above-mentioned amount of emulsifier, and the mixture is diluted with water to the desired concentration.
The leaves of sweet potato were immersed in the test solution at the appropriate concentration, and the leaves were dried in air. The leaves were then placed in a petri dish having a diameter of 9 cm, and ten third-instar larvae of tobacco cutworm were released therein. The petri dish was placed in a temperature-controlled chamber at 25° C. After 2 days and 4 days sweet potato leaves were additionally added. After 7 days, the number of dead larvae was counted to calculate the insecticidal activity. An insecticidal activity of 100% means that all larvae were killed, whereas an insecticidal activity of 0% means that no larva was killed. In the current test, the results of two petri dishes for each partition were averaged.

[2] = system: cucurbit leaf beetle (Aulacophora femoralis); test: Test against cucurbit leaf beetle (Aulacophora femoralis), leaf dip; type: in vivo; conditions: active compound concentration of 100 ppm; second-instar larvae on cucumber leaves; after 7 days
Procedure: as §1, §2, §3
Cucumber leaves were immersed in the test solution at the appropriate concentration, and the leaves were dried in air. The leaves were then placed in a plastic cup containing sterilized black soil, and five second-instar larvae of cucurbit leaf beetle were released therein. The plastic cup was placed in a temperature-controlled chamber at 25° C. After 7 days, the number of dead larvae was counted, and thus the insecticidal activity was calculated. An insecticidal activity of 100% means that all beetles were killed, whereas an insecticidal activity of 0% means that no beetle was killed.

SMILES	insecticidal activity [1] [%]	insecticidal activity [2] [%]
CCc1cc(C(n2nc(Br)c(Br)c2Br)(C(F)(F)F)C(F)(F)F)cc(C)c1NC(=O)c1cccc(NC(=O)c2cccnc2F)c1 [2-128]	100	100
CCc1cc(C(n2cc(Cl)cn2)(C(F)(F)F)C(F)(F)F)cc(C)c1NC(=O)c1cccc(NC(=O)c2cccc(F)c2F)c1 [2-37]	100	
CCc1cc(C(N2CC=CCC2)(C(F)(F)F)C(F)(F)F)cc(C)c1NC(=O)c1cccc(NC(=O)c2cccnc2Cl)c1 [2-180]	100	100
Cc1cc(C(n2ncnn2)(C(F)(F)F)C(F)(F)F)cc(C)c1NC(=O)c1cccc(NC(=O)c2cccnc2Cl)c1 [2-154]	100	
O=C(Nc1c(Cl)cc(C(n2cc(Cl)cn2)(C(F)(F)F)C(F)(F)F)cc1Cl)c1cccc(NC(=O)c2ccccc2F)c1 [2-32]	100	100
CCc1cc(C(Oc2ccc(Cl)cc2)(C(F)(F)F)C(F)(F)F)cc(CC)c1NC(=O)c1cccc(NC(=O)c2cccnc2Cl)c1 [1-176]	100	100
Cc1cc(C(n2cc(I)cn2)(C(F)(F)F)C(F)(F)F)cc(C)c1NC(=O)c1cccc(NC(=O)c2cccnc2Cl)c1 [2-95]	100	
CCc1cc(C(N2CC=CC2)(C(F)(F)F)C(F)(F)F)cc(C)c1NC(=O)c1cccc(NC(=O)c2cccnc2Cl)c1 [2-170]	100	
CCc1cc(C(OCC(F)(F)F)(C(F)(F)F)C(F)(F)F)cc(C)c1NC(=O)c1cccc(NC(=O)c2cccnc2Cl)c1 [1-146]	100	100
Cc1cc(C(n2ccc(C(Cl)Cl)n2)(C(F)(F)F)C(F)(F)F)cc(C)c1NC(=O)c1cccc(NC(=O)c2cccnc2Cl)c1 [2-106]	100	
C#CCOC(c1cc(I)c(NC(=O)c2cccc(NC(=O)c3ccccc3)c2)c(I)c1)(C(F)(F)F)C(F)(F)F [1-79]	100	100
Cc1cc(C(Oc2ccc(Cl)cc2)(C(F)(F)F)C(F)(F)F)ccc1NC(=O)c1cccc(NC(=O)c2cccnc2Cl)c1 [1-201]	100	
CCc1cc(C(n2cc(Br)cn2)(C(F)(F)F)C(F)(F)F)cc(C)c1NC(=O)c1cccc(NC(=O)c2cccnc2Cl)c1 [2-87]	100	100
Cc1cc(C(Oc2ccc(C#N)cc2)(C(F)(F)F)C(F)(F)F)cc(C)c1NC(=O)c1cccc(NC(=O)c2cccnc2Cl)c1 [1-180]	100	
CCc1cc(C(Oc2ccc(I)cc2)(C(F)(F)F)C(F)(F)F)cc(C)c1NC(=O)c1cccc(NC(=O)c2cccnc2Cl)c1 [1-152]	100	100
O=C(Nc1c(Cl)cc(C(n2cc(Cl)cn2)(C(F)(F)F)C(F)(F)F)cc1Cl)c1cccc(NC(=O)c2cccnc2Cl)c1 [2-61]	100	100
Cc1cc(C(n2cc(Cl)c(C(F)(F)F)n2)(C(F)(F)F)C(F)(F)F)cc(C)c1NC(=O)c1cccc(NC(=O)c2cccnc2Cl)c1 [2-118]	100	
CCc1cc(C(ON=Cc2ccccc2)(C(F)(F)F)C(F)(F)F)cc(C)c1NC(=O)c1cccc(NC(=O)c2cccnc2Cl)c1 [1-125]	100	
CCc1cc(C(Oc2ccc(Cl)c(Cl)c2)(C(F)(F)F)C(F)(F)F)cc(C)c1NC(=O)c1cccc(NC(=O)c2cccnc2Cl)c1 [1-151]	100	100
Cc1cc(C(n2cc(I)c(C(F)(F)F)n2)(C(F)(F)F)C(F)(F)F)cc(C)c1NC(=O)c1cccc(NC(=O)c2cccnc2Cl)c1 [2-119]		100
Cc1cc(C(n2nc(C(F)(F)F)cc2C(F)(F)F)C(F)(F)F)cc(C)c1NC(=O)c1cccc(NC(=O)c2cccnc2Cl)c1 (centres unmarked) [2-123, N-{3-[(4-{1-[3,5-bis(trifluoromethyl)-1H-pyrazol-1-yl)-2,2,2-trifluoroethyl}-2,6-dimethylphenyl)carbamoyl]phenyl}-2-chloropyridine-3-carboxamide]	100	
Cc1cc(C(n2ccc(Cl)n2)(C(F)(F)F)C(F)(F)F)cc(C)c1NC(=O)c1cccc(NC(=O)c2cccnc2Cl)c1 [2-7]		100
Cc1cc(C(n2cnc(C(F)(F)F)c2)(C(F)(F)F)C(F)(F)F)cc(C)c1NC(=O)c1cccc(NC(=O)c2cccnc2Cl)c1 [2-142]	100	
Cc1cc(C(n2ccc(C(F)(F)F)n2)(C(F)(F)F)C(F)(F)F)cc(C)c1NC(=O)c1cccc(NC(=O)c2cccnc2F)c1 [2-98]	100	
CSCCOC(c1cc(I)c(NC(=O)c2cccc(NC(=O)c3cccnc3Cl)c2)c(I)c1)(C(F)(F)F)C(F)(F)F [1-104]	100	

SMILES	insecticidal activity [1] [%]	insecticidal activity [2] [%]
O=C(Nc1c(Br)cc(C(c2ccccc2)(n2ccc(C(F)(F)F)n2)C(F)(F)F)cc1Br)c1cccc(NC(=O)c2cccnc2Cl)c1 (single isomer, unassigned) [2-100]		100
CCCOC(c1cc(I)c(NC(=O)c2cccc(NC(=O)c3ccc(C)nc3Cl)c2)c(I)c1)(C(F)(F)F)C(F)(F)F [1-63]	100	
Cc1cc(C(n2ccc(C(F)(F)C(F)(F)F)n2)(C(F)(F)F)C(F)(F)F)cc(C)c1NC(=O)c1cccc(NC(=O)c2cccnc2Cl)c1 [2-107]	100	
Cc1cc(C(n2ccc(Br)n2)(C(F)(F)F)C(F)(F)F)cc(C)c1NC(=O)c1cccc(NC(=O)c2cccnc2Cl)c1 [2-76, N-[3-({4-[2-(3-bromo-1H-pyrazol-1-yl)-1,1,1,3,3,3-hexafluoropropan-2-yl]-2,6-dimethylphenyl}carbamoyl)phenyl]-2-chloropyridine-3-carboxamide]	100	
O=C(Nc1c(Br)cc(C(c2ccccc2)(n2ccc(C(F)(F)F)n2)C(F)(F)F)cc1Br)c1cccc(NC(=O)c2cccnc2Cl)c1 (single isomer, unassigned) [2-99]	100	
Cc1cc(C(Oc2ccnc(C(F)(F)F)c2)(C(F)(F)F)C(F)(F)F)cc(C)c1NC(=O)c1cccc(NC(=O)c2cccnc2Cl)c1 [1-111]	100	
CCc1cc(C(ON=Cc2ccc(OC)cc2)(C(F)(F)F)C(F)(F)F)cc(C)c1NC(=O)c1cccc(NC(=O)c2cccnc2Cl)c1 [1-150]	100	
Cc1cc(C(n2cc(Br)c(Br)n2)(C(F)(F)F)C(F)(F)F)cc(C)c1NC(=O)c1cccc(NC(=O)c2cccnc2Cl)c1 [2-115]	100	
CCc1cc(C(Oc2ccc(Cl)nc2)(C(F)(F)F)C(F)(F)F)cc(C)c1NC(=O)c1cccc(NC(=O)c2cccnc2Cl)c1 [1-181]	100	
CCc1cc(C(Oc2ccnc(C(F)(F)F)c2)(C(F)(F)F)C(F)(F)F)cc(C)c1NC(=O)c1cccc(NC(=O)c2cccnc2Cl)c1 [1-112]	100	
CCc1cc(C(n2cc(Cl)cn2)(C(F)(F)F)C(F)(F)F)cc(C)c1NC(=O)c1cccc(NC(=O)c2cc(F)ccc2F)c1 [2-39]	100	
CCc1cc(C(Oc2ccccc2)(C(F)(F)F)C(F)(F)F)cc(C)c1NC(=O)c1cccc(NC(=O)c2cccnc2Cl)c1 [1-105]		100
CCc1cc(C(n2cc(Cl)cn2)(C(F)(F)F)C(F)(F)F)cc(C)c1NC(=O)c1cccc(NC(=O)c2cccc(F)c2)c1 [2-35]	100	
CCc1cc(C(OCC(F)(F)F)(C(F)(F)F)C(F)(F)F)cc(C)c1NC(=O)c1cccc(N)c1 [11-26]	100	
Cc1cc(C(n2nc(C(F)(F)F)cc2C(F)(F)F)(C(F)(F)F)C(F)(F)F)cc(C)c1NC(=O)c1cccc(NC(=O)c2cccnc2F)c1 [2-125]	100	
CCOC(c1cc(I)c(NC(=O)c2cccc(NC(=O)CCCl)c2)c(I)c1)(C(F)(F)F)C(F)(F)F [1-23]	100	
CCc1cc(C(n2cc(Cl)cn2)(C(F)(F)F)C(F)(F)F)cc(C)c1NC(=O)c1cccc(NC(=O)c2ccccc2F)c1 [2-30]	100	
CCc1cc(C(n2cc(Cl)cn2)(C(F)(F)F)C(F)(F)F)cc(C)c1NC(=O)c1cccc(NC(=O)c2ccc(F)cc2F)c1 [2-38]	100	
Cc1cc(C(Oc2cccc(C(F)(F)F)c2)(C(F)(F)F)C(F)(F)F)cc(C)c1NC(=O)c1cccc(NC(=O)c2cccnc2Cl)c1 [1-167]	100	
CCc1cc(C(Oc2cccc(C(F)(F)F)c2)(C(F)(F)F)C(F)(F)F)cc(C)c1NC(=O)c1cccc(NC(=O)c2cccnc2Cl)c1 [1-110]	100	
CCc1cc(C(ON=Cc2ccc(C)cc2)(C(F)(F)F)C(F)(F)F)cc(C)c1NC(=O)c1cccc(NC(=O)c2cccnc2Cl)c1 [1-149]	100	
CCc1cc(C(n2cncn2)(C(F)(F)F)C(F)(F)F)cc(C)c1NC(=O)c1cccc(NC(=O)c2cccnc2Cl)c1 [2-149]	100	
CCc1cc(C(n2cc(Cl)cn2)(C(F)(F)F)C(F)(F)F)cc(C)c1NC(=O)c1cccc(NC(=O)c2ccc(F)cc2)c1 [2-36]	100	
CCc1cc(C(n2cc(Cl)cn2)(C(F)(F)F)C(F)(F)F)cc(C)c1NC(=O)c1cccc(NC(=O)c2c(F)cccc2F)c1 [2-40]	100	

Source: patent publication US20110201603A1, “Novel Acylaminobenzamide Derivatives” (Bayer CropScience AG, priority 2008, published 2011)
